In article PMC12498190, “A Photocaged N‐Phosphonopiperidinone as a Selective Photo‐Cleavable DPP8/9 Inhibitor” (Chembiochem, 2025):

Molecular target: T1, human DPP8 (Homo sapiens, UniProt Q6V1X1)
T1 construct: purchased Proteros Biostructures GmbH, Germany
Test: Progress-curve kinetics of covalent DPP8 inhibition (kinact, KI)
Assay type: biochemical
Conditions: dark
Excerpt: As previously shown by us, 1 inhibits DPP8 and DPP9 via a covalent modification of the active site serine.^[ [31] ^] Therefore, we also measured the time dependence of this covalent modification of the target enzyme by recording progress curves for the inhibition of DPP8 and 9 and using them to calculate the corresponding binding affinity (KI), maximum enzyme inhibition rate (kinact) as well as the efficiency of covalent bond formation (kinact/KI) values for 5 after and without green light irradiation ( Figure S1 and Table S1, Supporting Information).
To calculate the reaction rate of covalent bond formation between DPP proteins and the inhibitor, kinact, KI, and kinact/KI were determined as previously described.^[ [49] ^, [50] ^] To this end, a dilution series of 5 was irradiated using a green LED lamp (λ = 520−530 nm; Eurolite, Germany) for 5 min and subsequently mixed with 250 µM GP‐AMC. The mixture was then added to 10 nM enzyme, and the resulting activity was measured for a maximum of 60 min at 30 °C. Fluorescence intensities were plotted against time and data were fitted to the following equation: [drawing 1] using Graph‐Pad Prism v10.4.1. The obtained pseudo first‐order rate constant was used to determine kinact and KI by fitting the plot of kobs against inhibitor concentration to the following equation: [drawing 2] . The efficiency of covalent bond formation (kinact/KI) was calculated by the ratio of kinact/KI. All measurements were performed in triplicate, and error bars represent standard errors of the fit.
Supplementary Figure 1. Kinetic analysis of DPP8 and DPP9 inhibition by compound 5. The pseudo-first order rate constant (kobs) was calculated from an exponential regression of progress curves and plotted against the concentration of compound 5. All measurement were performed in triplicate (n = 3 technical replicates), mean values are shown and error bars indicate the standard error of the mean (SEM). Inhibition assay was performed with DPP8 (A, B) and DPP9 (C, D) under ‘dark’ (A, C) and ‘light’ (B, D) conditions. […]

T1 sequence (Q6V1X1 whole entry): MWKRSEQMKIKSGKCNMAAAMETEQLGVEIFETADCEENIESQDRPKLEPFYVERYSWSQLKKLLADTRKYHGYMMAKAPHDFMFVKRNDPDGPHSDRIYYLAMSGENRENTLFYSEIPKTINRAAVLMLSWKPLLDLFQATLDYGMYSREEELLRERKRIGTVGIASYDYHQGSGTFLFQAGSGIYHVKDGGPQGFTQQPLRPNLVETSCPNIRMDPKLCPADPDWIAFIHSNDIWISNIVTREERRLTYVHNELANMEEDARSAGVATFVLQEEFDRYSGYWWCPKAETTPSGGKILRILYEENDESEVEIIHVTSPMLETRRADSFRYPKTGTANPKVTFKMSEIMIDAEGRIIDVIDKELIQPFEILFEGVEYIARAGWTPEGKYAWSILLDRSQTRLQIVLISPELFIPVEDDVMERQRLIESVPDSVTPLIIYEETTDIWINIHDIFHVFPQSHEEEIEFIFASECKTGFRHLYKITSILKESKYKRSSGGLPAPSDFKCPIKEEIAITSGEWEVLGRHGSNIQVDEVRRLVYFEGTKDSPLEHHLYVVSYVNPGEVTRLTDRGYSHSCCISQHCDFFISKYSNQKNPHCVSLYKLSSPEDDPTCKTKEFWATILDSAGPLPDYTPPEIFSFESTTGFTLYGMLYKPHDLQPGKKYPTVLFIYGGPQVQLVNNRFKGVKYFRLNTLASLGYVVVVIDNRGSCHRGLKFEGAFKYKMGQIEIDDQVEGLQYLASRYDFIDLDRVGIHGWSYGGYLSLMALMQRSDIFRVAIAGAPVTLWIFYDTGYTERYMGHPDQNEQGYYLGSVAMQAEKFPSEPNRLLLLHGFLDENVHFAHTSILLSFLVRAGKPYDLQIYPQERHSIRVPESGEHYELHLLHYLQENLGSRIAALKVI

With `CCCCCc1ccc(SCCP(=O)(OCC)N2CCC[C@H](NC(=O)OCC3=C4C(C)=CC(C)=[N+]4[B-](C)(C)n4c(C)cc(C)c43)C2=O)cc1` (stereo partly drawn) [Compound 5] the KI (inactivation) was 8.94 µM, the kinact was 0.002 s⁻¹ and the kinact/KI was 223 M⁻¹ s⁻¹.
